Data as given in patent publication US10640497B2, “Microbiocidal oxadiazole derivatives” (SYNGENTA PARTICIPATIONS AG, priority 2015, dated 2020).

Assays:
[1] = tested on: Puccinia recondita f. sp. tritici; experiment: Fungicidal activity against Puccinia recondita f. sp. tritici, wheat, leaf disc preventative (brown rust); type: in vivo; conditions: foliar, wheat leaf segments, preventative (inoculated 1 day after application), 7-9 days after application, compared to untreated control
Outline: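 Wheat cv. Kanzler leaf segments on water agar sprayed with compound (DMSO stock diluted in water), then inoculated with spore suspension 1 day later. Incubated at 19 °C, 75% rh, 12 h light/12 h dark; percent disease control versus untreated scored at 7-9 days after application.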

[2] = tested on: Puccinia recondita f. sp. tritici; experiment: Fungicidal activity against Puccinia recondita f. sp. tritici, wheat, leaf disc curative (brown rust); type: in vivo; conditions: foliar, 144 h, wheat leaf segments, curative (applied 1 day after inoculation), 6-8 days after application, compared to untreated control
Outline: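 Wheat cv. Kanzler leaf segments on agar, inoculated with brown rust spores and kept dark at 19 °C, 75% rh; formulated compound sprayed 1 day after inoculation (curative). Incubated 19 °C, 75% rh, 12 h light/dark; percent disease control vs untreated scored 6–8 days after application.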

[3] = tested on: Phakopsora pachyrhizi; experiment: Fungicidal activity against Phakopsora pachyrhizi, soybean, leaf disc preventative (Asian soybean rust); type: in vivo; conditions: foliar, 288 h, 12-14 days after application, compared to untreated control
Outline: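 Soybean leaf discs on water agar were sprayed with compound diluted in water, then inoculated one day later with a spore suspension on the lower leaf surface. After 24-36 h dark at 20 °C, 75% rh, discs were held at 20 °C, 12 h light/day. Percent disease control versus untreated assessed 12-14 days post-application.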

[4] = tested on: Glomerella lagenarium (Colletotrichum lagenarium); experiment: Fungicidal activity against Glomerella lagenarium (Colletotrichum lagenarium), liquid culture, cucumber, preventative (anthracnose); type: cell-based; conditions: Colletotrichum orbiculare, liquid culture (PDB), growth inhibition measured photometrically 3-4 days after application, compared to untreated control
Outline: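 Glomerella lagenarium conidia in potato dextrose broth were exposed in 96-well plates to test compound diluted from DMSO stock with 0.025% Tween20 and incubated at 24 °C. Growth inhibition was read photometrically 3–4 days after application, as percent activity relative to untreated check.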

Structure (SMILES)	melting point [°C]	pest or weed control at 200 ppm [1] [%]	pest or weed control at 200 ppm [2] [%]	pest or weed control at 200 ppm [3] [%]	inhibition of growth at 20 ppm [4] [%]
O=C1C2C=CC(C2)N1Cc1ccc(-c2noc(C(F)(F)F)n2)cc1 (centres unmarked) [Compound A-9, 3-[[4-[5-(trifluoromethyl)-1,2,4-oxadiazol-3-yl]phenyl]methyl]-3-azabicyclo[2.2.1]hept-5-en-2-one]	50 to 53	≥ 80	≥ 80	≥ 80	≥ 80
CC(C)(C)OC(=O)N1CCN(Cc2ccc(-c3noc(C(F)(F)F)n3)cc2)C(=O)C1 [Compound A-30, tert-butyl 3-oxo-4-[[4-[5-(trifluoromethyl)-1,2,4-oxadiazol-3-yl]phenyl]methyl]piperazine-1-carboxylate]	96 to 99	≥ 80	≥ 80		≥ 80
COCCNC(=O)N1CCN(Cc2ccc(-c3noc(C(F)(F)F)n3)cc2)C(=O)C1 [Compound A-38, N-(2-methoxyethyl)-3-oxo-4-[[4-[5-(trifluoromethyl)-1,2,4-oxadiazol-3-yl]phenyl]methyl]piperazine-1-carboxamide]	120 to 128	≥ 80	≥ 80	≥ 80	
CCOC(=O)N1CC(=O)N(Cc2ccc(-c3noc(C(F)(F)F)n3)cc2)C(=O)C1 [Compound A-57, ethyl 3,5-dioxo-4-[[4-[5-(trifluoromethyl)-1,2,4-oxadiazol-3-yl]phenyl]methyl]piperazine-1-carboxylate]	89 to 92	≥ 80		≥ 80	≥ 80
CNC(=O)N1CC(=O)N(Cc2ccc(-c3noc(C(F)(F)F)n3)cc2)C(=O)C1 [Compound A-58, N-methyl-3,5-dioxo-4-[[4-[5-(trifluoromethyl)-1,2,4-oxadiazol-3-yl]phenyl]methyl]piperazine-1-carboxamide]	148 to 153	≥ 80		≥ 80	≥ 80
CC(C)(C)OC(=O)N1CC(=O)N(Cc2ccc(-c3noc(C(F)(F)F)n3)cc2)C(=O)C1 [Compound A-62, tert-butyl 3,5-dioxo-4-[[4-[5-(trifluoromethyl)-1,2,4-oxadiazol-3-yl]phenyl]methyl]piperazine-1-carboxylate]	94 to 102	≥ 80			≥ 80
O=C1CNC(=O)N1Cc1ccc(-c2noc(C(F)(F)F)n2)cc1 [Compound A-65, 3-[[4-[5-(trifluoromethyl)-1,2,4-oxadiazol-3-yl]phenyl]methyl]imidazolidine-2,4-dione]	200 to 203	≥ 80		≥ 80	≥ 80
O=C1CCON1Cc1ccc(-c2noc(C(F)(F)F)n2)c(F)c1F [Compound A-66, 2-[[2,3-difluoro-4-[5-(trifluoromethyl)-1,2,4-oxadiazol-3-yl]phenyl]methyl]isoxazolidin-3-one]		≥ 80	≥ 80	≥ 80	≥ 80
O=C1CCCCCN1Cc1ccc(-c2noc(C(F)(F)F)n2)cc1 [Compound A-70, 1-[[4-[5-(trifluoromethyl)-1,2,4-oxadiazol-3-yl]phenyl]methyl]azepan-2-one]		≥ 80	≥ 80	≥ 80	≥ 80
CON1CCN(c2ccc(-c3noc(C(F)(F)F)n3)cc2)C1=O [Compound C-3, 1-methoxy-3-[4-[5-(trifluoromethyl)-1,2,4-oxadiazol-3-yl]phenyl]imidazolidin-2-one]	185 to 190				≥ 80
O=S1(=O)CCCN1c1ccc(-c2noc(C(F)(F)F)n2)cc1 [Compound D-1, 2-[4-[5-(trifluoromethyl)-1,2,4-oxadiazol-3-yl]phenyl]-1,2-thiazolidine 1,1-dioxide]		≥ 80	≥ 80	≥ 80	≥ 80

More lines, main results first:

melting point [°C]	Structure (SMILES)	pest or weed control at 200 ppm [1] [%]	pest or weed control at 200 ppm [2] [%]	pest or weed control at 200 ppm [3] [%]	inhibition of growth at 20 ppm [4] [%]
54 to 58	O=C1CCON1Cc1ccc(-c2noc(C(F)(F)F)n2)cc1 [Compound A-5, 2-[[4-[5-(trifluoromethyl)-1,2,4-oxadiazol-3-yl]phenyl]methyl]isoxazolidin-3-one]	≥ 80	≥ 80	≥ 80	≥ 80
83 to 88	CC1CCN(Cc2ccc(-c3noc(C(F)(F)F)n3)cc2)C1=O (centres unmarked) [Compound A-7, 3-methyl-1-[[4-[5-(trifluoromethyl)-1,2,4-oxadiazol-3-yl]phenyl]methyl]pyrrolidin-2-one]	≥ 80	≥ 80	≥ 80	≥ 80
55 to 60	O=C1CCCN1Cc1ccc(-c2noc(C(F)(F)F)n2)cc1F [Compound A-22, 1-[[2-fluoro-4-[5-(trifluoromethyl)-1,2,4-oxadiazol-3-yl]phenyl]methyl]pyrrolidin-2-one]	≥ 80	≥ 80	≥ 80	≥ 80
134 to 142	CN1CC(=O)N(Cc2ccc(-c3noc(C(F)(F)F)n3)cc2)CC1=O [Compound A-26, 1-methyl-4-[[4-[5-(trifluoromethyl)-1,2,4-oxadiazol-3-yl]phenyl]methyl]piperazine-2,5-dione]	≥ 80	≥ 80	≥ 80	≥ 80
114 to 118	CNC(=O)N1CCN(Cc2ccc(-c3noc(C(F)(F)F)n3)cc2)C(=O)C1 [Compound A-33, N-methyl-3-oxo-4-[[4-[5-(trifluoromethyl)-1,2,4-oxadiazol-3-yl]phenyl]methyl]piperazine-1-carboxamide]	≥ 80	≥ 80	≥ 80	≥ 80
80 to 89	O=C1CCCCN1Cc1ccc(-c2noc(C(F)(F)F)n2)nc1 [Compound A-53, 1-[[6-[5-(trifluoromethyl)-1,2,4-oxadiazol-3-yl]-3-pyridyl]methyl]piperidin-2-one]	≥ 80	≥ 80		
75 to 80	O=C1CCON1Cc1c(F)cc(-c2noc(C(F)(F)F)n2)cc1F [Compound A-67, 2-[[2,6-difluoro-4-[5-(trifluoromethyl)-1,2,4-oxadiazol-3-yl]phenyl]methyl]isoxazolidin-3-one]		≥ 80	≥ 80	≥ 80
80 to 84	O=C1CCCCCN1Cc1ccc(-c2noc(C(F)(F)F)n2)c(F)c1 [Compound A-69, 1-[[3-fluoro-4-[5-(trifluoromethyl)-1,2,4-oxadiazol-3-yl]phenyl]methyl]azepan-2-one]	≥ 80			≥ 80
